The values below come from US7772260B2, “Imidazo[2,1-b]-1,3,4-thiadiazole sulfonamides” (Aegera Therapeutics Inc., priority 2001, dated 2010).

“Also recorded” adds a separate entry of the source. Like-named read-outs stand apart in the source and are kept apart here.

One data set has as its system SCG neurons. Put plainly: cells. It counts as cell-based, Sprague Dawley rats. The settings on record: for IC50: Rattus norvegicus, Neuron.
Data set [1] has as its system retinal ganglion (RG) neurons. Put plainly: Optical stroke model. It counts as in vivo, rat. The source says: Various diseases which result in loss of vision are related to increased inter-ocular pressure and ocular stroke or ischemia. Loss of the retinal ganglion (RG) occur during ischemic insult and in diseases such as diabetes and glaucoma. A model of inter-ocular ischemia involves an invasive increase in ocular pressure which results in the collapse of the central retinal artery. Retinal ischemia is confirmed by whitening of the iris and loss of red reflex. The inter-ocular pressure is normalized after 30 minutes. This procedure is performed on the right eye and the left eye serves as a control. Compound was given either by intra-vitrial injection or via SC injections at 10 mg/kg (see Example 162).
The right eye of each rat was dilated fully using 1% tropacamide and 2% pheylephrine hydrochloride (Alcon Canada). A single drop of 0.5% proparacaine (Alcon) was used as a topical anesthetic. The anterior chamber of the right eye was cannulated with a 30-gauge needle connected to a saline reservoir and a manometer to monitor intraocular pressure. Intraocular pressure was raised to 110 mm Hg by raising the saline reservoir for 60 minutes. This increase in pressure collapses the central retinal artery. […] Optical function after 24 hrs, 28 hrs and 7 days was assessed using ERG measurements and histological staining of the RG layer.

The subject of data set [2] is human lung carcinoma cells (H460). Put plainly: Co-treatment of H460 cell line with Taxol and compound 1. It counts as cell-based. The settings on record: Taxol™ (50 nM) + compound at 5, 10, 20 uM; Taxol™ and/or cisplatin. How it is done: H460 and OV2008 cells were plated and incubated for 48 hours. Compound 1 and/or compound 1 and Taxol™ were added. Viability was determined after 24 hours, staining with MTT (Promega).
FIG. 3 illustrates the co-treatment of H460 and OV 2008 cell lines with Taxol™ and compound 1. H460 lung carcinoma and OV2008 ovarian carcinoma cells were treated with Taxol™ (50 nM) and/or Taxol™ (50 nM)+compound 1 (noted as AEG 03482) at levels of 5, 10, and 20 uM.

On to `NS(=O)(=O)c1nn2cc(-c3ccccc3)nc2s1` [Compound 1, 6-Phenylimidazo[2,1-b]-1,3,4-thiadiazole-2-sulfonamide], for which the “protection against Taxol™ induced killing” value in the data set with SCG neurons (10 uM, Taxol™ 50 ng/mL, MTS) was found to be 100%. The IC50 came out at 7 µM in the data set with SCG neurons (Taxol™ (50 ng/mL), viability 48 hours later, MTS, read-out: IC(50), protection of SCG neurons from Taxol killing) and 7 µM in the data set on SCG neurons (read-out: IC(50) against Taxol killing of SCGs). In addition, the “protection of RG population / ERG conductance after ocular stroke” value in data set [1] (given post stroke, intravitreally then daily injections for 1 week) was “protects the RG population allowing for normal conductance”. For the same compound, the “histology of the RG layer” value in data set [1] (intra-vitrial injection or SC) was “healthy RG layers”. Moreover, the “protection of H460 cells from Taxol™ induced apoptosis” value in data set [2] was “no protection; also recorded: did not protect”.
